The target of one test is T1, AMP deaminase 3 (Homo sapiens, UniProt Q01432).
T1 sequence (Q01432 whole entry): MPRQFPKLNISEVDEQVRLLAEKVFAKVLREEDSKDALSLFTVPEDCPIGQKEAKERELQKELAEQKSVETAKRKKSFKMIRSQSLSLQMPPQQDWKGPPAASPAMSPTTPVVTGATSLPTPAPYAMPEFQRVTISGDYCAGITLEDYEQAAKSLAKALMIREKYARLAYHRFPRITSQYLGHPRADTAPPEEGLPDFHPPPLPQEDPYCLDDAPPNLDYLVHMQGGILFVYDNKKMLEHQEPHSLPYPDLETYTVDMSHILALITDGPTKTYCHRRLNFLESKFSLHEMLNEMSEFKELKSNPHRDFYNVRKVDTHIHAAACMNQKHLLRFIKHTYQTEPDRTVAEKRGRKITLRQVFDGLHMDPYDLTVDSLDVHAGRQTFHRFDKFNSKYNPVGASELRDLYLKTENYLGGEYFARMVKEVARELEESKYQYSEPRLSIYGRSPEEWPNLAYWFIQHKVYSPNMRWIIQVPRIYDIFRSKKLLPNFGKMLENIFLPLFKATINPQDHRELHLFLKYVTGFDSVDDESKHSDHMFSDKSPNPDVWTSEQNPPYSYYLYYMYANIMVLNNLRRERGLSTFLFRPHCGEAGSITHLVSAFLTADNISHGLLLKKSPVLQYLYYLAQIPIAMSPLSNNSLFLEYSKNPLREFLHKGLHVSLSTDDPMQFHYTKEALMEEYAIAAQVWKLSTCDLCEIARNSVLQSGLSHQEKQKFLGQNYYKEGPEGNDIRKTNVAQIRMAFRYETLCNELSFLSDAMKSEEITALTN
In words: Inhibition of recombinant human E-type adenylate deaminase.

The target of a further test is T2, Adenosine deaminase (Bos taurus, UniProt P56658).
T2 sequence (P56658 whole entry): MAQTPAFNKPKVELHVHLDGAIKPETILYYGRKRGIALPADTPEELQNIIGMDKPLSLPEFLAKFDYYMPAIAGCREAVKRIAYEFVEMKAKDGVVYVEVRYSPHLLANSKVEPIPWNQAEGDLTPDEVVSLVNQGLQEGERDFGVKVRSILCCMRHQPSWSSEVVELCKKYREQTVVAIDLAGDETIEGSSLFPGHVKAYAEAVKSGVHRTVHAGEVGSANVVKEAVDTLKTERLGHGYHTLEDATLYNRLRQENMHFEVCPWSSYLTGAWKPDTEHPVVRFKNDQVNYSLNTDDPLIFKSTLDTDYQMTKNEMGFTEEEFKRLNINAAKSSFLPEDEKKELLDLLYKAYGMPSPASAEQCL
The test is described as follows: Inhibition of Calf intestinal adenosine deaminase (ADA).

With `CCOC(=O)c1c(Cl)c2c(c(CCn3cnc4c3NC=NCC4O)c1Cl)CCCC2` (configuration not stated), the Ki on AMP deaminase 3 was 0.5 µM; at Adenosine deaminase, greater than 7.5 µM.

`O=C(O)c1cc(CCn2cnc3c2N=CNCC3O)c2cc(Br)ccc2c1` (configuration not stated): the inhibitory constant (Ki) is 0.96 µM at AMP deaminase 3 and greater than 7.5 µM on Adenosine deaminase. As to `CCOC(=O)c1cc(CCn2cnc3c2N=CNCC3O)c2cccc(C(F)(F)F)c2c1` (configuration not stated), the Ki was found to be 35 µM at AMP deaminase 3 and 2.7 µM on Adenosine deaminase. For `CCOC(=O)c1cc2c(c(CCn3cnc4c3N=CNCC4O)c1)CCCC2` (configuration not stated), the Ki is 1.3 µM at AMP deaminase 3 and 3.4 µM at Adenosine deaminase. `O=C(O)c1cc(CCn2cnc3c2N=CNCC3O)c2cccc(C(F)(F)F)c2c1` (configuration not stated): the inhibition constant Ki at AMP deaminase 3 is 0.22 µM; on Adenosine deaminase, greater than 7.5 µM. In the same order, the values of `O=C(O)c1cc(CCn2cnc3c2N=CNCC3O)c2c(c1OCc1ccccc1)CCCC2` (configuration not stated) are 0.009 µM and greater than 7.5 µM.

As to `CCOC(=O)c1cc(CCn2cnc3c2NC=NCC3O)c2c(c1Br)CCCC2` (configuration not stated), the Ki was 1 µM on AMP deaminase 3 and 0.53 µM on Adenosine deaminase. On to `O=C(OCc1ccccc1)c1cc2c(c(CCn3cnc4c3N=CNCC4O)c1)CCCC2` (configuration not stated), for which the Ki turned out to be 5 µM on AMP deaminase 3 and 0.72 µM on Adenosine deaminase. In the same order, the values of `COc1c(C(=O)O)cc2c(c1CCn1cnc3c1NC=NCC3O)CCCC2` (configuration not stated) are 0.04 µM and greater than 7.5 µM. Consider `CCOC(=O)c1cc(CCn2cnc3c2NC=NCC3O)c2c(c1OC)CCCC2` (configuration not stated), for which the Ki on AMP deaminase 3 was determined as 2.3 µM; on Adenosine deaminase, 3.7 µM. For `O=C(O)c1cc2c(c(CCn3cnc4c3NC=NCC4O)c1)CCCC2` (configuration not stated), in that order: 0.015 µM and greater than 7.5 µM.

With `COC(=O)c1cc(CCn2cnc3c2NC=NCC3O)c2ccccc2c1` (configuration not stated), the inhibitory constant (Ki) was 1.8 µM at AMP deaminase 3 and greater than 7.5 µM at Adenosine deaminase. For `CC(C)Oc1c(C(=O)O)cc(CCn2cnc3c2N=CNCC3O)c2c1CCCC2` (configuration not stated), in that order: 0.09 µM and greater than 7.5 µM. In the same order, the values of `CCOC(=O)c1cc(CCn2cnc3c2NC=NCC3O)c2c(c1OCc1ccccc1)CCCC2` (configuration not stated) are 0.3 µM and greater than 7.5 µM.

With `COc1c(C(=O)O)cc(CCn2cnc3c2NC=NCC3O)c2c1CCCC2` (configuration not stated), the Ki at AMP deaminase 3 was 0.03 µM; on Adenosine deaminase, greater than 7.5 µM. Take `CCOC(=O)c1cc2c(c(CCn3cnc4c3N=CNCC4O)c1OC)CCCC2` (configuration not stated): the Ki at AMP deaminase 3 is 2.4 µM; at Adenosine deaminase, greater than 7.5 µM. For `O=C(O)c1c(Cl)c2c(c(CCn3cnc4c3N=CNCC4O)c1Cl)CCCC2` (configuration not stated), in that order: 0.05 µM and greater than 7.5 µM. For `O=C(O)c1cc(CCn2cnc3c2N=CNCC3O)c2c(c1Br)CCCC2` (configuration not stated), in that order: 0.002 µM and greater than 7.5 µM. As to `O=C(O)c1cc(CCn2cnc3c2NC=NCC3O)c2ccccc2c1` (configuration not stated), the Ki is 0.02 µM at AMP deaminase 3 and greater than 1000 µM on Adenosine deaminase. In the same order, the values of `CCOC(=O)c1cc(CCn2cnc3c2NC=NCC3O)c2c(c1OC(C)C)CCCC2` (configuration not stated) are 3.8 µM and greater than 7.5 µM. For the molecule `CCOC(=O)c1cc(CCn2cnc3c2N=CNCC3O)c2cc(Br)ccc2c1` (configuration not stated), the Ki at AMP deaminase 3 is 14 µM; on Adenosine deaminase, 4.4 µM.

For `O=C(OCc1ccccc1)c1c(Cl)c2c(c(CCn3cnc4c3NC=NCC4O)c1Cl)CCCC2` (configuration not stated), the results for the Ki at AMP deaminase 3 and on Adenosine deaminase were 0.3 µM and greater than 7.5 µM, respectively. Turning to `O=C(O)c1cccc(CCn2cnc3c2N=CNCC3O)c1` (configuration not stated), the Ki at AMP deaminase 3 is 0.5 µM. Take `O=C(O)C(CCCCn1cnc2c1NC=NCC2O)Cc1ccccc1` (configuration not stated): the inhibition constant (Ki) at AMP deaminase 3 is 0.41 µM. Turning to `OC[C@H]1O[C@@H](n2cnc3c2N=CNC[C@H]3O)[C@H](O)[C@@H]1O` [COFORMYCIN], the Ki at AMP deaminase 3 worked out at 3 µM.

As a reminder, the Ki is the dissociation constant of the complex between target and ligand, obtained from inhibition or displacement.
